From patent US20190084939A1, “ANALOGS OF FEXARAMINE AND METHODS OF MAKING AND USING” (Salk Institute for Biological Studies, priority 2014, published 2019)
Like-named read-outs stand apart in the source and are kept apart here.

Target: T1, Human FXR full length (Homo sapiens, UniProt Q96RI1)
T1 construct: Human FXR full length and RXR full length was obtained from Ronald Evans' laboratory; expressed in transfected cells; host or cells: CV-1 cells
T1 sequence (Q96RI1 1-476 isoform Q96RI1-1): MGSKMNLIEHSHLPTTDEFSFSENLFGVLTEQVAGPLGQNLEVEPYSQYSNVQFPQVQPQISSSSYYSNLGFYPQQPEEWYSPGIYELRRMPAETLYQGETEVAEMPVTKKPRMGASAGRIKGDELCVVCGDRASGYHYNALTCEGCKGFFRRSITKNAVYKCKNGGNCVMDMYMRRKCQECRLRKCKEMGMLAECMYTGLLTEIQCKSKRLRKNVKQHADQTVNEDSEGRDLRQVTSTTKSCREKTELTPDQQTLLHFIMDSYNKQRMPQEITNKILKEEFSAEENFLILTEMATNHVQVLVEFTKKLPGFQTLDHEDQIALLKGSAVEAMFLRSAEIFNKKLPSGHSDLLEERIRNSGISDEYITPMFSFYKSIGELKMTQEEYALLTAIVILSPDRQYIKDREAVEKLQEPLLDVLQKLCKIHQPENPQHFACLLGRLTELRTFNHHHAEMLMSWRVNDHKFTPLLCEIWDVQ
T1 sequence (P19793 1-462 partner): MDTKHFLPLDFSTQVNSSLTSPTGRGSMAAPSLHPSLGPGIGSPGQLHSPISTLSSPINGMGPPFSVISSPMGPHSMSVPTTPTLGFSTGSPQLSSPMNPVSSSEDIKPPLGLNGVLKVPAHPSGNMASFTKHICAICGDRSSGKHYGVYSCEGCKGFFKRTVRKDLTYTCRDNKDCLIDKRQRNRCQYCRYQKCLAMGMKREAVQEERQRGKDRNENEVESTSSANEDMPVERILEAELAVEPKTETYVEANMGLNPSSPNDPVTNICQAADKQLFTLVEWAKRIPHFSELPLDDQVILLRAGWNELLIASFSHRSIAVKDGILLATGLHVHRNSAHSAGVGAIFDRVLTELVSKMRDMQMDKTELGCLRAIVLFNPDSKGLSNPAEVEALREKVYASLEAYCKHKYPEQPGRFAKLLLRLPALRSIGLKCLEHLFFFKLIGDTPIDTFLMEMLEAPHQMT
Test: FXR activity screen, luciferase reporter in transfected CV-1 cells
Format: cell-based
Procedure: CV-1 cells were grown in DMEM+10% charcoal stripped FCS. Cells were seeded into 384-well plates the day before transfection to give a confluency of 50-80% at transfection. A total of […] DNA containing 0.32 micrograms pCMX-hFXRfl, 0.32 micrograms pCMX-hRXRfl, 0.1 micrograms pCMXβGal, 0.08 micrograms pGLFXRE reporter and 0.02 micrograms pCMX empty vector was transfected per well using FuGene transfection reagent according to the manufacturer's instructions (Roche). Cells were allowed to express protein for 48 hours followed by addition of compound.
Human FXR full length and RXR full length was obtained from Ronald Evans' laboratory and PCR amplification of the hFXR cDNA and the hRXR cDNA was performed. The amplified cDNAs was cloned into the vector pCMX generating the plasmids pCMX-hFXRfl and pCMX-hRXRfl. Ensuing fusions were verified by sequencing. The pCMXMH2004 luciferase reporter contains multiple copies of the GAL4 DNA response element under a minimal eukaryotic promoter (Hollenberg and Evans, 1988). pCMXβGal was generated in the Evans laboratory, Salk Institute.
All compounds were dissolved in DMSO and diluted 1:1000 upon addition to the cells. Compounds were tested in quadruple in concentrations ranging from 0.001 to 100 μM. Cells were treated with compound for 24 hours followed by luciferase assay. Each compound was tested in at least two separate experiments.
Medium including test compound was aspirated and washed with PBS. 50 μL PBS including 1 mM Mg^2+ and Ca^2+ were then added to each well. The luciferase assay was performed using the LucLite kit according to the manufacturer's instructions (Packard Instruments). Light emission was quantified by counting on a Perkin Elmer Envision reader. To measure […] activity 25 μL supernatant from each transfection lysate was transferred to a new 384 microplate. Beta-galactosidase assays were performed in the microwell plates using a kit from Promega and read in a Perkin Elmer Envision reader. The beta-galactosidase data were used to normalize (transfection efficiency, cell growth etc.) the luciferase data.
The activity of a compound is calculated as fold induction compared to an untreated sample. For each compound the efficacy (maximal activity) is given as a relative activity compared to Fexaramine, a FXR agonist. The EC50 is the concentration giving 50% of maximal observed activity. EC50 values were calculated via non-linear regression using GraphPad PRISM (GraphPad Software, San Diego, Calif.).

[1] = first round, CV-1 cells, 24 hours, read-out: 1st RND EC50
[2] = second round, CV-1 cells, 24 hours, read-out: 2nd RND EC50

EC50 [1] [nM]	EC50 [2] [nM]	EC50 (retest, read-out: EC50 (retested)) [nM]	Structure (SMILES)
450	861		[2H]C(c1ccc(-c2ccc(N(C)C)cc2)cc1)N(C(=O)[C@@H]1C[C@@H]2CC[C@H]1C2)c1cccc(/C=C/C(=O)OC)c1 (stereo partly shown) [NSSK00107]
509	457		COC(=O)/C=C/c1cccc(N(Cc2ccc(-c3ccc(N(C)C)cc3)cc2F)C(=O)c2ccccc2)c1 [NSSK00054]
135	620		COC(=O)/C=C/c1cccc(N(Cc2ccc(-c3ccc(N(C)C)cc3)cc2)C(=O)[C@@H]2C[C@@H]3CC[C@H]2C3)c1 [NSSK00042]
5400	8500		[2H]C(c1ccc(-c2ccc3c(cnn3C)c2)cc1F)N(C(=O)[C@@H]1C[C@@H]2CC[C@H]1C2)c1cncc(/C=C/C(=O)OC)c1 (stereo partly shown) [NSSK00066]
4600	3300		[2H]C(c1ccc(-c2ccc(N(C)C)cc2)cc1Cl)N(C(=O)[C@@H]1C[C@@H]2CC[C@H]1C2)c1cncc(/C=C/C(=O)OC)c1 (stereo partly shown) [NSSK00064]
5700	7400		COC(=O)/C=C/c1cc(F)cc(N(Cc2ccc(-c3ccc(N(C)C)cc3)cc2)C(=O)c2ccccc2)c1 [NSSK00068]
752	720		COC(=O)/C=C/c1cccc(N(Cc2ccc(-c3ccc4c(cnn4C)c3)cc2)C(=O)c2ccccc2)c1 [NSSK00056]
3200	2700		COC(=O)/C=C/c1cncc(N(Cc2cccc3cc4cnn(C)c4c(Cl)c23)C(=O)C2C[C@H]3CC[C@@H]2C3)c1 (stereo partly shown) [NSSK00022]
655	670		COC(=O)/C=C/c1cccc(N(Cc2ccc(-c3ccc4c(cnn4C)c3)cc2Cl)C(=O)c2ccccc2)c1 [NSSK00098]
80.9	80.7		COC(=O)/C=C/c1cccc(N(Cc2ccc(-c3ccc(N(C)C)cc3)cc2F)C(=O)[C@@H]2C[C@@H]3CC[C@H]2C3)c1 [NSSK00043]
382	357		[2H]C(c1ccc(-c2ccc(N(C)C)cc2)cc1)N(C(=O)c1ccccc1)c1cccc(/C=C/C(=O)OC)c1 (stereo not shown) [NSSK00048]
355	403		COC(=O)/C=C/c1cc(F)cc(N(Cc2ccc(-c3ccc4c(cnn4C)c3)cc2Cl)C(=O)[C@@H]2C[C@@H]3CC[C@H]2C3)c1 [NSSK00047]
931	1400		COC(=O)/C=C/c1cccc(N(Cc2ccc(-c3ccc(N(C)C)cc3)cc2Cl)C(=O)c2ccccc2)c1 [NSSK00055]
380	415		COC(=O)/C=C/c1cncc(N(Cc2cccc3cc4cnn(C)c4cc23)C(=O)[C@@H]2C[C@@H]3CC[C@H]2C3)c1 [NSSK00018]
68.6	55.8		COC(=O)/C=C/c1cccc(N(Cc2cccc3ccc(N(C)C)cc23)C(=O)C2CCCCC2)c1 [NSSK00001]
18600	4900		COC(=O)/C=C/c1cccc(N(Cc2cccc3cc4cnn(C)c4c(F)c23)C(=O)C2CCN(C)CC2)c1 [NSSK00036]
459	511		[2H]C(c1ccc(-c2ccc3c(cnn3C)c2)cc1F)N(C(=O)c1ccccc1)c1cccc(/C=C/C(=O)OC)c1 (stereo not shown) [NSSK00093]
289	379		[2H]C(c1ccc(-c2ccc3c(cnn3C)c2)cc1F)N(C(=O)C1CCCCC1)c1cc(F)cc(/C=C/C(=O)OC)c1 (stereo not shown) [NSSK00011]
1550	870		[2H]C(c1ccc(-c2ccc3c(cnn3C)c2)cc1F)N(C(=O)c1ccccc1)c1cc(F)cc(/C=C/C(=O)OC)c1 (stereo not shown) [NSSK00039]

EC50 [1] [nM]	EC50 [2] [nM]	EC50 (retest, read-out: EC50 (retested)) [nM]	Structure (SMILES)
227	547		[2H]C(c1ccc(-c2ccc(N(C)C)cc2)cc1Cl)N(C(=O)[C@@H]1C[C@@H]2CC[C@H]1C2)c1cc(F)cc(/C=C/C(=O)OC)c1 (stereo partly shown) [NSSK00104]
1100	5000		[2H]C(c1ccc(-c2ccc3c(cnn3C)c2)cc1)N(C(=O)c1ccccc1)c1cc(F)cc(/C=C/C(=O)OC)c1 (stereo not shown) [NSSK00051]
743	464		COC(=O)/C=C/c1cc(F)cc(N(Cc2cccc3cc4cnn(C)c4c(F)c23)C(=O)C2C[C@H]3CC[C@@H]2C3)c1 (stereo partly shown) [NSSK00020]
237	266		COC(=O)/C=C/c1cccc(N(Cc2ccc(-c3ccc4c(cnn4C)c3)cc2)C(=O)C2CCCCC2)c1 [NSSK00004]
606	795		COC(=O)/C=C/c1cccc(N(Cc2ccc(-c3ccc4c(cnn4C)c3)cc2F)C(=O)c2ccccc2)c1 [NSSK00057]
1100	2200		[2H]C(c1ccc(-c2ccc(N(C)C)cc2)cc1Cl)N(C(=O)C1CCCCC1)c1cc(F)cc(/C=C/C(=O)OC)c1 (stereo not shown) [NSSK00072]
473	169		COC(=O)/C=C/c1cc(F)cc(N(Cc2cccc3cc4cnn(C)c4c(F)c23)C(=O)C2CCCCC2)c1 [NSSK00007]
786	865		[2H]C(c1ccc(-c2ccc3c(cnn3C)c2)cc1Cl)N(C(=O)[C@@H]1C[C@@H]2CC[C@H]1C2)c1cc(F)cc(/C=C/C(=O)OC)c1 (stereo partly shown) [NSSK00094]
2600	2900		[2H]C(c1ccc(-c2ccc(N(C)C)cc2)cc1Cl)N(C(=O)C1CCCCC1)c1cncc(/C=C/C(=O)OC)c1 (stereo not shown) [NSSK00032]
340	375	220	[2H]C(c1ccc(-c2ccc3c(cnn3C)c2)cc1)N(C(=O)C1CCCCC1)c1cc(F)cc(/C=C/C(=O)OC)c1 (stereo not shown) [NSSK00096, methyl (E)-3-(3-fluoro-5-(N-((4-(1-methyl-1H-indazol-5-yl)phenyl)methyl-d)cyclohexanecarboxamido)phenyl)acrylate]
9600	10200		COC(=O)/C=C/c1cncc(N(Cc2ccc(-c3ccc4c(cnn4C)c3)cc2F)C(=O)c2ccccc2)c1 [NSSK00061]
3300	4900		COC(=O)/C=C/c1cncc(N(Cc2cccc3cc4cnn(C)c4c(Cl)c23)C(=O)C2CCCCC2)c1 [NSSK00009]
1700	2100		[2H]C(c1ccc(-c2ccc(N(C)C)cc2)cc1Cl)N(C(=O)c1ccccc1)c1cc(F)cc(/C=C/C(=O)OC)c1 (stereo not shown) [NSSK00050]
1400	1500		[2H]C(c1ccc(-c2ccc3c(cnn3C)c2)cc1Cl)N(C(=O)C1CCCCC1)c1cncc(/C=C/C(=O)OC)c1 (stereo not shown) [NSSK00095]
866	726		COC(=O)/C=C/c1cc(F)cc(N(Cc2ccc(-c3ccc4c(cnn4C)c3)cc2Cl)C(=O)C2CCCCC2)c1 [NSSK00097]
756	500		COC(=O)/C=C/c1cccc(N(Cc2ccc(-c3ccc4c(cnn4C)c3)cc2)C(=O)[C@H]2C[C@H]3CC[C@@H]2C3)c1 [NSSK00017]
698	673		COC(=O)/C=C/c1cncc(N(Cc2ccc(-c3ccc(N(C)C)cc3)cc2F)C(=O)C2CCCCC2)c1 [NSSK00078]
798	65000		[2H]C(c1ccc(-c2ccc3c(cnn3C)c2)cc1)N(C(=O)c1ccccc1)c1cncc(/C=C/C(=O)OC)c1 (stereo not shown) [NSSK00119]
	8600		[2H]C(c1ccc(-c2ccc(N(C)C)cc2)cc1F)N(C(=O)c1ccccc1)c1cncc(/C=C/C(=O)OC)c1 (stereo not shown) [NSSK00116]
